Test results published in patent US9516880B2, “Herbicidal and fungicidal 5-oxy-substituted 3-phenylisoxazoline-5-carboxamides and 5-oxy-substituted 3-phenylisoxazoline-5-thioamides” (BAYER CROPSCIENCE AG, priority 2012, dated 2016).

Key:
[1] = system: Sphaerotheca fuliginea; assay: In vivo protective test, Sphaerotheca fuliginea (powdery mildew in gherkins); conditions: application rate 500 ppm, gherkin plants, evaluation 12 days after inoculation, 0% = control, 100% = no infection
Description: Example: In vivo protective test, Sphaerotheca fuliginea (powdery mildew in gherkins) To produce an appropriate active ingredient formulation, active ingredient is mixed with acetone/Tween/DMSO and diluted with water to the appropriate concentration. Gherkin plants (cultivar: Vert petit de Paris) are cultivated in 50/50 peat/pozzolan substrate at 24° C. and sprayed at the Z11 cotyledon stage with the active ingredient formulation specified above. Plants which serve as a control are treated with an aqueous solution without active ingredient. After 24 hours, the plants are sprayed with a spore suspension of Sphaerotheca fuliginea (100 000 spores/ml). The spores are collected from infected plants. The inoculated plants are placed at 20/25° C. and at 60/70% relative humidity.

[2] = system: Phytophthora infestans; type: in vivo; conditions: application rate 500 ppm; protective, tomato plants; evaluation 5 days after infection; 0% = control, 100% = no infection
[3] = system: Botrytis cinerea; assay: In vivo protective test, Botrytis cinerea (gray mold in gherkins); conditions: application rate 500 ppm, gherkin plants, evaluation 4-5 days after infection, 0% = control, 100% = no infection
Description: To produce an appropriate active ingredient formulation, active ingredient is mixed with acetone/Tween/DMSO and diluted with water to the appropriate concentration. Gherkin plants (Vert petit de Paris) are cultivated in 50/50 peat/pozzolan substrate at 24° C. and sprayed at the Z11 stage with the active ingredient formulation specified above. Plants which serve as a control are treated with an aqueous solution without active ingredient. After 24 hours, the plants are sprayed with a spore suspension of Botrytis cinerea (50 000 spores/ml). The spores are suspended in a nutrient solution consisting of 10 g/L PDB, 50 g/L D-Fructose, 2 g/L NH4NO3 and 1 g/L KH2PO4. The inoculated gherkin plants are incubated at 17° C. and at 80% relative air humidity.

[4] = system: Septoria tritici; assay: In vivo protective test, Septoria tritici (blotch in wheat); conditions: application rate 500 ppm, wheat plants, evaluation 21-28 days after inoculation, 0% = control, 100% = no infection
Description: To produce an appropriate active ingredient formulation, active ingredient is mixed with acetone/Tween/DMSO and diluted with water to the appropriate concentration. Wheat plants (cultivar: Scipion) are cultivated in 50/50 peat/pozzolan substrate at 22° C. (12 h)/20° C. (12 h) and sprayed at the 1-leaf stage (height 10 cm) with the active ingredient formulation specified above. Control plants are sprayed with an aqueous solution without added active ingredient. After 24 hours, the plants are sprayed with a spore suspension of cryopreserved Septoria tritici (500 000 spores/ml).

[5] = system: Plasmopara viticola; assay: Plasmopara test (grapevine)/protective; type: in vivo; conditions: Plasmopara viticola on grapevine, protective, active ingredient concentration 100 ppm, 6 days after inoculation
Description: The plants are then moistened and placed in an incubation cabin for 1 day.

[6] = system: Venturia inaequalis; assay: Venturia test (apple)/protective; conditions: Venturia inaequalis on apple, protective, active ingredient concentration 100 ppm, 10 days after inoculation
Description: • Solvents: 24.5 parts by weight of acetone • 24.5 parts by weight of dimethylacetamide • Emulsifier: 1 part by weight of alkylaryl polyglycol ether
To produce an appropriate active ingredient formulation, 1 part by weight of active ingredient is mixed with the stated amounts of solvent and emulsifier, and the concentrate is diluted with water to the desired concentration.
To test for protective efficacy, young plants are sprayed with the active ingredient formulation at the stated application rate. After the spray coating has dried on, the plants are inoculated with an aqueous conidia suspension of the apple scab pathogen Venturia inaequalis and then remain in an incubation cabin at about 20° C. and 100% relative air humidity for 1 day.
The plants are then placed in a greenhouse at about 21° C. and a relative air humidity of about 90%.
Evaluation follows 10 days after the inoculation.

Structure (SMILES): COCC(C)NC(=O)C1(OC)CC(c2cc(F)cc(F)c2)=NO1 (single isomer, unassigned) [1.11-19 D1]
- Efficacy [%] [1]: 100%
- Efficacy [%] [2]: 100%
- Efficacy [%] [3]: 100%
- Efficacy [%] [4]: 100%

Structure (SMILES): COC1(C(=O)NC2CC2)CC(c2cc(Br)cc(OC(F)(F)F)c2)=NO1 (centres unmarked) [Compound 1.32-60]
- Efficacy [%] [1]: 100%
- Efficacy [%] [3]: 100%
- Efficacy [%] [4]: 100%

Structure (SMILES): CCn1cc(CNC(=O)C2(OC)CC(c3cc(F)cc(C(F)(F)F)c3)=NO2)cn1 (centres unmarked) [Compound 1.18-206]
- Efficacy [%] [1]: 95%
- Efficacy [%] [2]: 90%
- Efficacy [%] [3]: 100%

Structure (SMILES): CCOC1(C(=O)NCc2cnn(CC)c2)CC(c2cc(F)cc(F)c2)=NO1 (centres unmarked) [Compound 2.11-206]
- Efficacy [%] [2]: 100%
- Efficacy [%] [4]: 83%

Structure (SMILES): COCC(C)NC(=O)C1(OC)CC(c2cc(Cl)cc(Cl)c2)=NO1 (single isomer, unassigned) [1.20-19 D2]
- Efficacy [%] [1]: 100%
- Efficacy [%] [2]: 100%
- Efficacy [%] [3]: 100%
- Efficacy [%] [4]: 100%

Structure (SMILES): CCOC(=O)CC(C)NC(=O)C1(OC)CC(c2cccc(CC)c2)=NO1 (centres unmarked) [Compound 1.6-96]
- Efficacy [%] [3]: 95%
- Efficacy [%] [4]: 75%

Structure (SMILES): COC(=O)CCCNC(=O)C1(OC)CC(c2cc(Br)cc(C(F)(F)F)c2)=NO1 (centres unmarked) [Compound 1.33-102]
- Efficacy [%] [1]: 100%
- Efficacy [%] [4]: 100%

Structure (SMILES): C=CCNC(=O)C1(OC)CC(c2cc(Cl)cc(OC(F)(F)F)c2)=NO1 (centres unmarked) [Compound 1.25-16]
- Efficacy [%] [1]: 95%
- Efficacy [%] [3]: 100%
- Efficacy [%] [4]: 97%

Structure (SMILES): CCOC(=O)CCNC(=O)C1(OC)CC(c2cc(F)cc(OC)c2)=NO1 (centres unmarked) [Compound 1.16-94]
- Efficacy [%] [3]: 75%

Structure (SMILES): COC1(C(=O)NCc2ccncc2)CC(c2cc(Cl)cc(Cl)c2)=NO1 (centres unmarked) [Compound 1.20-135]
- Efficacy [%] [1]: 98%
- Efficacy [%] [3]: 100%
- Efficacy [%] [4]: 100%

Structure (SMILES): COC1(C(=O)NCc2ccc(Cl)nc2)CC(c2cc(F)cc(F)c2)=NO1 (centres unmarked) [Compound 1.11-110]
- Efficacy [%] [1]: 78%
- Efficacy [%] [2]: 100%
- Efficacy [%] [3]: 90%
- Efficacy [%] [4]: 100%

Structure (SMILES): COC1(C(=O)NCc2ccnc(Cl)c2)CC(c2cc(C)cc(F)c2)=NO1 (centres unmarked) [Compound 1.14-136]
- Efficacy [%] [3]: 88%

Structure (SMILES): CCOC(=O)CC(C)NC(=O)C1(OC)CC(c2cc(F)cc(OC)c2)=NO1 (centres unmarked) [Compound 1.16-96]
- Efficacy [%] [1]: 78%
- Efficacy [%] [3]: 85%
- Efficacy [%] [4]: 88%

Structure (SMILES): COC1(C(N)=O)CC(c2cc(Br)cc(OC(F)(F)F)c2)=NO1 (centres unmarked) [Compound 1.32-1]
- Efficacy [%] [4]: 98%

Structure (SMILES): CCn1cc(CNC(=O)C2(OC)CC(c3cccc(Cl)c3)=NO2)cn1 (centres unmarked) [Compound 1.3-206]
- Efficacy [%] [1]: 94%
- Efficacy [%] [4]: 100%

Structure (SMILES): COC1(C(=O)NC(C)C)CC(c2cc(Cl)cc(Cl)c2)=NO1 (centres unmarked) [Compound 1.20-5]
- Efficacy [%] [5]: 99%
- Efficacy [%] [6]: 96%

Structure (SMILES): COC1(C(=O)NCc2cccnc2Cl)CC(c2cc(F)cc(F)c2)=NO1 (centres unmarked) [Compound 1.11-238]
- Efficacy [%] [1]: 83%
- Efficacy [%] [2]: 99%
- Efficacy [%] [3]: 100%
- Efficacy [%] [4]: 100%

Structure (SMILES): COC1(C(=O)NCc2nc(C)cc(C)n2)CC(c2cc(F)cc(F)c2)=NO1 (centres unmarked) [Compound 1.11-189]
- Efficacy [%] [2]: 100%

Structure (SMILES): CCn1cc(CNC(=O)C2(OC)CC(c3cc(C)cc(F)c3)=NO2)cn1 (centres unmarked) [Compound 1.14-206]
- Efficacy [%] [1]: 98%
- Efficacy [%] [2]: 100%
- Efficacy [%] [3]: 100%
- Efficacy [%] [4]: 100%

Structure (SMILES): COC1(C(=O)NCc2ccc(Cl)nc2)CC(c2cc(Cl)cc(Cl)c2)=NO1 (centres unmarked) [Compound 1.20-110]
- Efficacy [%] [3]: 83%
- Efficacy [%] [4]: 100%

Structure (SMILES): CCn1cc(CNC(=O)C2(OC)CC(c3cc(Br)cc(OC(F)(F)F)c3)=NO2)cn1 (centres unmarked) [Compound 1.32-206]
- Efficacy [%] [3]: 96%
- Efficacy [%] [4]: 100%

Structure (SMILES): COc1cc(F)cc(C2=NOC(OC)(C(=O)NCc3ccc(Cl)nc3)C2)c1 (centres unmarked) [Compound 1.16-110]
- Efficacy [%] [1]: 89%
- Efficacy [%] [3]: 100%
- Efficacy [%] [4]: 100%

Structure (SMILES): COc1cccc(C2=NOC(OC)(C(=O)NCc3ccc(Cl)nc3)C2)c1 (centres unmarked) [Compound 1.7-110]
- Efficacy [%] [3]: 100%
- Efficacy [%] [4]: 100%

Structure (SMILES): COC1(C(=O)NC2(C#N)CC2)CC(c2cc(Cl)cc(Cl)c2)=NO1 (centres unmarked) [Compound 1.20-64]
- Efficacy [%] [1]: 98%
- Efficacy [%] [2]: 100%
- Efficacy [%] [3]: 70%
- Efficacy [%] [4]: 100%

Structure (SMILES): COC1(C(=O)NC2CC2)CC(c2cc(Br)cc(C(F)(F)F)c2)=NO1 (centres unmarked) [Compound 1.33-60]
- Efficacy [%] [1]: 100%
- Efficacy [%] [3]: 100%
- Efficacy [%] [4]: 100%
